The text below walks through data of paper PMC11204923, “Marine Cytotoxin Santacruzamate A Derivatives as Potent HDAC1-3 Inhibitors and Their Synergistic Anti-Leukemia Effects with Venetoclax” (Marine Drugs, 2024).

Type in all cases: biochemical
For one assay, the target named is T1, HDAC1 (Homo sapiens, UniProt Q13547).
T1 construct: purchased BPS Bioscience
As to the kind of experiment: In vitro HDAC inhibition fluorescence assay, HDAC1. The following applies: for inhibition at 0.01 µM: 10 nM; for inhibition at 0.01 µM / inhibition at 0.1 µM: read-out: Inhibition Rate of HDAC1 (%); for inhibition at 0.1 µM: 100 nM. As to the method: (§1) All of the HDAC enzymes were purchased from BPS Bioscience. In vitro HDAC inhibition assays were conducted as previously described. In brief, 20 μL of recombinant HDAC enzyme solution (HDAC1-9, 11) was mixed with various concentrations of the tested compound (20 μL). […] After incubation at 37 °C for 2 h, the catalysis was stopped by the addition of 10 μL of developer containing 30 mg/mL trypsin and 6 μM trichostatin A (TSA). Then, 30 min later, the fluorescence intensity was measured using a microplate reader at excitation and emission wavelengths of 360 and 460 nm, respectively. The inhibition ratios were calculated from the fluorescence intensity readings of tested wells relative to those of control wells, and the IC50 curves and values were determined by GraphPad Prism 6.0, using the “log(inhibitor) vs. normalized response-variable slope” function.

The target in the next assay is T2, HDAC3 (Homo sapiens, UniProt O15379).
T2 construct: purchased BPS Bioscience
T2 sequence (O15379 whole entry): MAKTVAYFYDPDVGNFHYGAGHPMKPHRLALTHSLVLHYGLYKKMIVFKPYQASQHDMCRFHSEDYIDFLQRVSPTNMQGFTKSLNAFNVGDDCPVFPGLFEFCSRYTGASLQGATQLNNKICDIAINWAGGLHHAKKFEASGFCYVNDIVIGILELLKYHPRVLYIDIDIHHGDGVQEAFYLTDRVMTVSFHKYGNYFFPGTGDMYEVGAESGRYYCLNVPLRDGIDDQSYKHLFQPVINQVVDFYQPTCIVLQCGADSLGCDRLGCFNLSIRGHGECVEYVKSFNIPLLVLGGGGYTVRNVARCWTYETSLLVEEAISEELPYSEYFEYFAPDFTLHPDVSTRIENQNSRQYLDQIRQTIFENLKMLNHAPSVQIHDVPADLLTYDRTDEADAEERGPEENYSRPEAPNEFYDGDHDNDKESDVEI
T2 sequence (Q9Y618 395-489 partner limits assumed): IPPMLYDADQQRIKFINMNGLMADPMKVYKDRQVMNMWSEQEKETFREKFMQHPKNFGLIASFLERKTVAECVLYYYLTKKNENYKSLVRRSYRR
As to the kind of experiment: In vitro HDAC inhibition fluorescence assay, HDAC3. The following applies: for inhibition at 0.01 µM: 10 nM; for inhibition at 0.01 µM / inhibition at 0.1 µM: read-out: Inhibition Rate of HDAC3 (%); for inhibition at 0.1 µM: 100 nM. As to the method:
as §1

A further assay deals with T3, HDAC2 (Homo sapiens, UniProt Q92769).
T3 construct: purchased BPS Bioscience
T3 sequence (Q92769 whole entry): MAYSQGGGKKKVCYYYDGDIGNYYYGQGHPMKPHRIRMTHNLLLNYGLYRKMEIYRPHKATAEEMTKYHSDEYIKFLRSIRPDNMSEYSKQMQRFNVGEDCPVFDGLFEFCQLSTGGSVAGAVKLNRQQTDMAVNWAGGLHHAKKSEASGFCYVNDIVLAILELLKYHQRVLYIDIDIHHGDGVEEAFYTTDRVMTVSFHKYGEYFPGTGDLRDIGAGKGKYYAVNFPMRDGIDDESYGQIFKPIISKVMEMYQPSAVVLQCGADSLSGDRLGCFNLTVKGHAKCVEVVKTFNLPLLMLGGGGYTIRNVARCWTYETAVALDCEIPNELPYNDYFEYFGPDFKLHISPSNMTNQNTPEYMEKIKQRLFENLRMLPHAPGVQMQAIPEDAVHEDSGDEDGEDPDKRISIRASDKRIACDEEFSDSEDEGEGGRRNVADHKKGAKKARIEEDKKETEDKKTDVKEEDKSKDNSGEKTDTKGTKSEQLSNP
As to the kind of experiment: In vitro HDAC inhibition fluorescence assay, HDAC2. As to the method: as §1

T1 sequence (Q13547 whole entry): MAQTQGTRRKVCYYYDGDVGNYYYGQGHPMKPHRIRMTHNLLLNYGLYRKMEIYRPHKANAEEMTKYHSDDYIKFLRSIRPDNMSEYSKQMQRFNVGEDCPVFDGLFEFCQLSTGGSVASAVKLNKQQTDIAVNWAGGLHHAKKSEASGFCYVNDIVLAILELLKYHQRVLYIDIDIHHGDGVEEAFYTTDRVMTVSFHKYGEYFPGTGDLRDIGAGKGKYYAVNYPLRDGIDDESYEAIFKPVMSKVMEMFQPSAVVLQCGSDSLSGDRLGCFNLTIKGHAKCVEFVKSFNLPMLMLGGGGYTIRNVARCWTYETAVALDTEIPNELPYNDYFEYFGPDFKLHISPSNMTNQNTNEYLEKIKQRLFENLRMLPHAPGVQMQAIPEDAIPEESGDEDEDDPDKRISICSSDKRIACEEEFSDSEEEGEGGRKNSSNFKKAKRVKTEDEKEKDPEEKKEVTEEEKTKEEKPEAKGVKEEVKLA

Take `CCCNNC(=O)CCC(=O)NCCc1ccccc1` [Compound 9a, 4-Oxo-N-phenethyl-4-(2-propylhydrazineyl)butanamide]: on HDAC1, the inhibition at 0.01 µM was 2.2 ± 2.3% and the inhibition at 0.1 µM is 0.3 ± 1.7%. In addition, on HDAC3, the inhibition at 0.01 µM was -0.6 ± 1.9% and the inhibition at 0.1 µM was determined as 11.1 ± 0.5%.

In the case of `CCCNNC(=O)CCCC(=O)NCCc1ccccc1` [Compound 9b, 5-Oxo-N-phenethyl-5-(2-propylhydrazineyl)pentanamide], at HDAC1, the inhibition at 0.01 µM was -9.2 ± 1.4% and the inhibition at 0.1 µM stood at 3.1 ± 1.1%. Also, at HDAC3, the inhibition at 0.01 µM came to 11.5 ± 0.7% and the inhibition at 0.1 µM amounted to 53.7%.

Turning to `CCCNNC(=O)CCCCC(=O)NCCc1ccccc1` [Compound 9c, 6-Oxo-N-phenethyl-6-(2-propylhydrazineyl)hexanamide], the inhibition at 0.01 µM on HDAC1 was -6 ± 1.2%; at HDAC3 it was 18.2 ± 2.9%. Further, the results for the inhibition at 0.1 µM on HDAC1 and on HDAC3 were 27.5 ± 0.6% and 61.9 ± 0.7%, respectively.

Regarding `CCCNNC(=O)CCCCCC(=O)NCCc1ccccc1` [Compound 9d, 7-Oxo-N-phenethyl-7-(2-propylhydrazineyl)heptanamide], the inhibition at 0.01 µM at HDAC1 was determined as 5.58 ± 2.39%; on HDAC3, 21.2 ± 1.5%. The inhibition at 0.1 µM at HDAC1 is 52 ± 2.86%; on HDAC3 it was 76.82 ± 0.47%.

On to `CCCNNC(=O)CCCCCCC(=O)NCCc1ccccc1` [Compound 9e, 8-Oxo-N-phenethyl-8-(2-propylhydrazineyl)octanamide], for which the inhibition at 0.01 µM at HDAC1 came out at 12 ± 0.9%; at HDAC3, 38.8 ± 3%. Also, the inhibition at 0.1 µM on HDAC1 amounted to 65.6 ± 0.1%; at HDAC3, 85.5 ± 0.6%.

In the case of `CCCNNC(=O)CCCCCCCC(=O)NCCc1ccccc1` [Compound 9f, 9-Oxo-N-phenethyl-9-(2-propylhydrazineyl)nonanamide], on HDAC1, the inhibition at 0.01 µM is 15.9 ± 1.6% and the inhibition at 0.1 µM was found to be 57.1 ± 0.7%. In addition, at HDAC3, the inhibition at 0.01 µM was found to be 19.6 ± 8% and the inhibition at 0.1 µM amounted to 79.9 ± 0.8%.

On to `CCCNNC(=O)c1ccc(C(=O)NCCc2ccccc2)cc1` [Compound 9g, N-Phenethyl-4-(2-propylhydrazine-1-carbonyl)benzamide], for which, at HDAC1, the inhibition at 0.01 µM is 23.5 ± 2% and the inhibition at 0.1 µM came out at 30.1 ± 2.1%. At HDAC3, the inhibition at 0.01 µM was 11.2 ± 8% and the inhibition at 0.1 µM worked out at 50.6 ± 5.4%.

In the case of `CCCNNC(=O)c1ccc(CC(=O)NCCc2ccccc2)cc1` [Compound 9h, N-Phenethyl-2-(4-(2-propylhydrazine-1-carbonyl)phenyl)acetamide], the figures for the inhibition at 0.01 µM at HDAC1 and at HDAC3 were 5.61 ± 1.6% and -4.61 ± 13.6%, respectively. Further, the results for the inhibition at 0.1 µM on HDAC1 and on HDAC3 were 10.1 ± 0.7% and -5.9 ± 0.6%, respectively.

With `CCCNNC(=O)Cc1ccc(C(=O)NCCc2ccccc2)cc1` [Compound 9i, 4-(2-Oxo-2-(2-propylhydrazineyl)ethyl)-N-phenethylbenzamide], on HDAC1, the inhibition at 0.01 µM is 12.5 ± 0.2% and the inhibition at 0.1 µM worked out at 16.4 ± 1.2%. Besides, on HDAC3, the inhibition at 0.01 µM was -0.8 ± 4.2% and the inhibition at 0.1 µM is -3.1 ± 3.4%.

For `CCCNNC(=O)C=Cc1ccc(C(=O)NCCc2ccccc2)cc1` [Compound 9j, 4-(3-Oxo-3-(2-propylhydrazineyl)prop-1-en-1-yl)-N-phenethylbenzamide], at HDAC1, the IC50 worked out at 35.8 ± 3.6 nM, the inhibition at 0.01 µM stood at 32.8 ± 0.1% and the inhibition at 0.1 µM came out at 76.7 ± 0.3%. On HDAC2, this compound gave an IC50 of 69.4 ± 3.4 nM.

Turning to `CCCNNC(=O)CCc1ccc(C(=O)NCCc2ccccc2)cc1` [Compound 9k, 4-(3-Oxo-3-(2-propylhydrazineyl)propyl)-N-phenethylbenzamide], at HDAC1, the IC50 is 122 ± 18.6 nM, the inhibition at 0.01 µM was found to be 23.1 ± 2.1% and the inhibition at 0.1 µM is 67.9 ± 1.4%. The IC50 against HDAC2 came to 374 ± 21.7 nM.

Consider `CCCNNC(=O)c1ccc(C=CC(=O)NCCc2ccccc2)cc1` [Compound 9l, N-Phenethyl-3-(4-(2-propylhydrazine-1-carbonyl)phenyl)acrylamide], for which, on HDAC1, it took 37.4 ± 5.8 nM to reach half-maximal inhibition (IC50), the inhibition at 0.01 µM stood at 36.5 ± 2.1% and the inhibition at 0.1 µM turned out to be 74.5 ± 0.3%. Also, at HDAC2, it took 116 ± 11.4 nM to reach half-maximal inhibition (IC50). For the same compound, at HDAC3, half-maximal inhibition (IC50) was put at 6 ± 1.7 nM, the inhibition at 0.01 µM stood at 78.1 ± 0.1% and the inhibition at 0.1 µM is 87.2 ± 2.6%.

Turning to `CCCNNC(=O)c1ccc(CCC(=O)NCCc2ccccc2)cc1` [Compound 9m, N-Phenethyl-3-(4-(2-propylhydrazine-1-carbonyl)phenyl)propanamide], the inhibition at 0.01 µM on HDAC1 stood at 21.2 ± 0.9%; at HDAC3 it was 27.2 ± 2.7%. For the same compound, the inhibition at 0.1 µM on HDAC1 amounted to 67.3 ± 2.8%; at HDAC3, 80.7 ± 0.7%.

As for `CCCNNC(=O)CCCNC(=O)Cc1ccccc1` [Compound 14a, N-(4-Oxo-4-(2-propylhydrazineyl)butyl)-2-phenylacetamide], at HDAC1, the inhibition at 0.01 µM was -7 ± 2.6% and the inhibition at 0.1 µM came to 2.3 ± 2.4%. Further, on HDAC3, the inhibition at 0.01 µM was found to be 2.4 ± 2.9% and the inhibition at 0.1 µM came out at 18.2 ± 3.3%.

Consider `CCCNNC(=O)CCCCNC(=O)Cc1ccccc1` [Compound 14b, N-(5-Oxo-5-(2-propylhydrazineyl)pentyl)-2-phenylacetamide], for which, at HDAC1, the inhibition at 0.01 µM was -9.04 ± 0.1% and the inhibition at 0.1 µM stood at 7.7 ± 2.1%. At HDAC3, the inhibition at 0.01 µM is 16.6 ± 3.2% and the inhibition at 0.1 µM turned out to be 45.2 ± 1.1%.

`CCCNNC(=O)CCCCCNC(=O)Cc1ccccc1` [Compound 14c, N-(6-Oxo-6-(2-propylhydrazineyl)hexyl)-2-phenylacetamide]: the inhibition at 0.01 µM at HDAC1 is -6.8 ± 2.1%; on HDAC3 it was 16.1 ± 3.3%. Moreover, the inhibition at 0.1 µM stood at 14.4 ± 2.4% on HDAC1 and 54.4 ± 0.7% on HDAC3.

Take `CCCNNC(=O)CCCCCCNC(=O)Cc1ccccc1` [Compound 14d, N-(7-Oxo-7-(2-propylhydrazineyl)heptyl)-2-phenylacetamide]: at HDAC1, the inhibition at 0.01 µM amounted to 1.9 ± 3.7% and the inhibition at 0.1 µM was 43.2 ± 0.1%. In addition, at HDAC3, the inhibition at 0.01 µM amounted to 21.2 ± 1.5% and the inhibition at 0.1 µM turned out to be 76.8 ± 0.4%.

On to `CCCNNC(=O)CCCCCCCNC(=O)Cc1ccccc1` [Compound 14e, N-(8-Oxo-8-(2-propylhydrazineyl)octyl)-2-phenylacetamide], for which the inhibition at 0.01 µM amounted to 8.8 ± 3.7% at HDAC1 and 23.1 ± 0.1% on HDAC3. The values for the inhibition at 0.1 µM on HDAC1 and at HDAC3 were 51.6 ± 0.9% and 71.5 ± 0.7%, respectively.

On to `CCCNNC(=O)CCCCCCCCNC(=O)Cc1ccccc1` [Compound 14f, N-(9-Oxo-9-(2-propylhydrazineyl)nonyl)-2-phenylacetamide], for which, at HDAC1, the inhibition at 0.01 µM amounted to 9.8 ± 0.4% and the inhibition at 0.1 µM came to 32.7 ± 1.2%. At HDAC3, the inhibition at 0.01 µM worked out at 3.2 ± 10.6% and the inhibition at 0.1 µM worked out at 48.8 ± 1.1%.

With `CCCNNC(=O)C=Cc1ccc(C(=O)NC2Cc3ccccc3C2)cc1` [Compound 19a, N-(2,3-Dihydro-1H-inden-2-yl)-4-(3-oxo-3-(2-propylhydrazineyl)prop-1-en-1-yl)benzamide], on HDAC1, the inhibition at 0.01 µM came out at 8.1 ± 0.3% and the inhibition at 0.1 µM was 39.9 ± 0.6%. At HDAC3, the inhibition at 0.01 µM was determined as 37.4 ± 0.1% and the inhibition at 0.1 µM came to 78.2 ± 0.5%.

`CCCNNC(=O)C=Cc1ccc(C(=O)N2CCc3ccccc3C2)cc1` [Compound 19b, N′-Propyl-3-(4-(1,2,3,4-tetrahydroisoquinoline-2-carbonyl)phenyl)acrylohydrazide]: on HDAC1, the inhibition at 0.01 µM was -4.6 ± 2.1% and the inhibition at 0.1 µM is -0.4 ± 1.7%. For the same compound, at HDAC3, the inhibition at 0.01 µM is -1.1 ± 2.3% and the inhibition at 0.1 µM is 18.3 ± 0.5%.

Take `CCCNNC(=O)C=Cc1ccc(C(=O)N2CCc3cc(Br)ccc3C2)cc1` [Compound 19c, 3-(4-(6-Bromo-1,2,3,4-tetrahydroisoquinoline-2-carbonyl)phenyl)-N′-propylacrylohydrazide]: the inhibition at 0.01 µM was 1.5 ± 1.5% on HDAC1 and 4.1 ± 9.9% on HDAC3. In addition, the inhibition at 0.1 µM is 27.2 ± 2.8% at HDAC1 and 38.1 ± 0.8% at HDAC3.

Take `CCCNNC(=O)C=Cc1ccc(C(=O)N2CCc3ccc(Br)cc3C2)cc1` [Compound 19d, 3-(4-(7-Bromo-1,2,3,4-tetrahydroisoquinoline-2-carbonyl)phenyl)-N′-propylacrylohydrazide]: at HDAC1, the inhibition at 0.01 µM is -1.4 ± 0.5% and the inhibition at 0.1 µM stood at 38.2 ± 2.3%. On HDAC3, the inhibition at 0.01 µM was -0.4 ± 3.4% and the inhibition at 0.1 µM was 34.8 ± 1.2%.

As to `CCCNNC(=O)C=Cc1ccc(CNc2ccccc2)cc1` [Compound 25a, 3-(4-((Phenylamino)methyl)phenyl)-N′-propylacrylohydrazide], on HDAC1, the IC50 was 96.5 ± 1.1 nM, the inhibition at 0.01 µM was determined as 14.2 ± 1.5% and the inhibition at 0.1 µM is 60.7 ± 0.7%. This compound also yielded an IC50 at HDAC2 of 224 ± 19.4 nM. At HDAC3, half-maximal inhibition (IC50) required 8.2 ± 0.9 nM, the inhibition at 0.01 µM turned out to be 49.2 ± 0.9% and the inhibition at 0.1 µM amounted to 80.4 ± 0.7%.

On to `CCCNNC(=O)C=Cc1ccc(CNc2cccc3ccccc23)cc1` [Compound 25f, 3-(4-((Naphthalen-1-ylamino)methyl)phenyl)-N′-propylacrylohydrazide], for which, on HDAC1, the inhibition at 0.01 µM was found to be 31.3% and the inhibition at 0.1 µM turned out to be 71.2 ± 0.9%. Moreover, on HDAC3, the inhibition at 0.01 µM worked out at 25.7 ± 1.3% and the inhibition at 0.1 µM is 60.7 ± 0.5%.

The inhibition is the change of the read-out against control, counted positive when it falls. Usually IC50 stands for the concentration needed to halve the response being measured. Low values mean inhibition by little substance, high ones a need for much substance.
